From paper PMC8347595, “N-Skatyltryptamines—Dual 5-HT6R/D2R Ligands with Antipsychotic and Procognitive Potential” (Molecules, 2021)

Assays:
HepG2 cell line = assay: Hepatotoxicity assay, HepG2 viability; format: cell-based; conditions: 1 μM, 72 h
Procedure: To estimate the hepatotoxicity of compounds, the hepatoma HepG2 (ATCC® HB-8065TM) cell line was used according to previously described protocols. The CellTiter 96® AQueous Non-Radioactive Cell Proliferation Assay was obtained from Promega (Madison, WI, USA). The compounds were tested in quadruplicate at four concentrations (1–100 µM) for 72 h.

CYP3A4 = molecular target: T1, CYP3A4 (Homo sapiens, UniProt P08684); assay: CYP3A4 P450-Glo luminescent assay; format: in vitro ADME; conditions: compared to ketoconazole; 0.01 to 25 µM
T1 construct: purchased Promega (Madison, WI, USA)
T1 sequence (P08684 whole entry): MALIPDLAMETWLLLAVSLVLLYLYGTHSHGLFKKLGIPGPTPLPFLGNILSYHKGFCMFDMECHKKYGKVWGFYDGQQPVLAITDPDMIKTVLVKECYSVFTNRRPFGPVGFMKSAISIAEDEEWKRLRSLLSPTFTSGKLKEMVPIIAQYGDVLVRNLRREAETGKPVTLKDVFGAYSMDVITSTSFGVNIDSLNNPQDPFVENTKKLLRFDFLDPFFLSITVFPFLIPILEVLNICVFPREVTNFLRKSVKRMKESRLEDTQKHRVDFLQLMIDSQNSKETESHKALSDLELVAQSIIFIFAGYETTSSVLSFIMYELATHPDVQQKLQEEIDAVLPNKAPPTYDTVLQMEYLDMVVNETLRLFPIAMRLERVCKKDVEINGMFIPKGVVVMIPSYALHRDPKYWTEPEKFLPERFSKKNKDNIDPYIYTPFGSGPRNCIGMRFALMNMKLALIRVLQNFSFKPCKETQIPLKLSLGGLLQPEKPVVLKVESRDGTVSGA
Procedure: The experiments were provided using commercially available luminescent CYP3A4 P450-Glo™ and CYP2D6 P450-Glo™ tests purchased from Promega (Madison, WI, USA). The enzymatic reactions were conducted in polystyrene, flat-bottom Nunc™ MicroWell™ 96-well microplates (Thermo Scientific, Waltham, MA, USA). The assays were carried out according to the procedures provided by the manufacturer, as described previously. Compounds were tested in triplicate at the final concentrations in a range from 0.01 to 25 µM for both isoforms of CYP450. The references of CYP3A4 and CYP2D6 inhibitors (ketoconazole and quinidine, respectively) were tested in a range from 0.001 to 10 µM. Tested compounds were incubated in 100 mM Tris-HCl buffer separately with CYP3A4 and CYP2D6 membranes and the NADPH Regeneration System for 30 min at room temperature in triplicate. The bioluminescent signal was measured after the addition of the Luciferin Detection Reagent by using a microplate reader EnSpire PerkinElmer (Waltham, MA, USA). Both reagents (NADPH Regeneration System and Luciferin Detection Reagent) were purchased from Promega (Madison, WI, USA).

Male CD1 mice [1] = assay: Novel object recognition (NOR) test, MK-801-induced memory impairment; format: in vivo; conditions: i.p., MK-801 0.3 mg/kg
Procedure: (§1) Animals. Male CD1 mice (Charles River, Germany) weighing 20–25 g at the time of arrival were used in behavioral experiments. Animals were kept under standard laboratory conditions (12:12 light: dark cycle, 22 ± 2 °C) with free access to food and water. Animal welfare has been regularly controlled by a veterinarian and animal welfare committee. After two weeks of acclimatization and handling, the experiments began. Experimental groups consisted of four to 10 animals, depending on the procedure. Drugs were administered intraperitoneally (i.p.) at a volume of 10 mL/kg. Experimental assessments were performed by an observer who was blinded to the treatment conditions. All procedures were conducted in accordance with the European Communities Council Directive of 22 September 2010 (2010/63/EU) and Polish legislation acts concerning animal experimentation and were approved by the II Local Ethics Committee by the Maj Institute of Pharmacology, Polish Academy of Sciences in Krakow (272/2019).
(§2) Drugs. MK-801 was purchased from Tocris Bioscience, Bristol, UK. MK-801 was dissolved in 0.9% NaCl. Compounds 15 and 18 were dissolved in 0.9% NaCl. All compounds were administered intraperitoneally (i.p.) in a volume of 10 mL/kg. Vehicle-treated animals received appropriate solvents. Vehicle was administered to animals in any case when drug administration was omitted (e.g., control or MK-801-treated groups).
This procedure was adapted from Nilsson et al. (2007) and performed as described in a previous paper by Cieslik et al. (2018). Habituation, training, and test trials were performed in a black plastic rectangular arena (40 × 30 × 35 cm) illuminated with a light intensity of 335 lux. During the habituation trial (two consecutive days), each animal was allowed to explore the arena for 10 min. The next day, during the training trial (T1), mice were placed in the arena and presented with two identical objects (red glass cylinder; 6.5 cm in diameter and 4.5 cm high) for 5 min. After 1 h, animals were placed back into the arena for a 5 min test trial, during which one of the previously presented familiar objects was replaced with a novel object (a transparent glass elongated sphere-like object with an orange cap; 5.5 cm in diameter and 8.5 cm high). Time spent exploring (i.e., sniffing or touching) the familiar (Tfamiliar) and novel (Tnovel) objects was measured by a trained observer, and the recognition index [%] was calculated for each mouse [(Tnovel − Tfamiliar)/(Tfamiliar + Tnovel)] × 100. Compounds were administered 30 min before MK-801 (0.3 mg/kg), which was administered 30 min before training trial.

Male CD1 mice [2] = assay: MK-801-induced hyperactivity in mice; format: in vivo; conditions: i.p.; for reversal of MK-801-elevated activity: MK-801 0.35 mg/kg, 15: 0.5, 1, 3 mg/kg, 18: 0.05-3 mg/kg
Procedure: as §1, §2
The locomotor activity was recorded individually for each animal in locomotor activity cages (according to Rorick-Kehn et al., 2007a,b), with modifications (Wieronska et al., 2012). The mice were placed individually into activity cages (13 × 23 × 15 cm; Opto-M3; Columbus Instruments) for an acclimatization period of 30 min; then they were injected i.p. with compound 15 (0.5, 1, 3 mg/kg) or compound 18 (0.05, 0.1, 0.5, 1, 3 mg/kg) and placed again in the same cages. After 30 min, all of the mice were injected i.p. with MK-801 at 0.35 mg/kg and once again placed in the same cage. From then on, the ambulation scores were counted for 60 min. All of the groups were compared with the MK-801 control group. […]

Human Serotonin 5-HT6R = molecular target: T2, Human Serotonin 5-HT6R (Homo sapiens, UniProt P50406); assay: 5-HT6R functional assay, antagonistic mode (cAMP induced by 5-CT, 1321N1 cells); format: cell-based
T2 construct: host or cells: 1321N1 (frozen recombinant cells)
T2 sequence (P50406 whole entry): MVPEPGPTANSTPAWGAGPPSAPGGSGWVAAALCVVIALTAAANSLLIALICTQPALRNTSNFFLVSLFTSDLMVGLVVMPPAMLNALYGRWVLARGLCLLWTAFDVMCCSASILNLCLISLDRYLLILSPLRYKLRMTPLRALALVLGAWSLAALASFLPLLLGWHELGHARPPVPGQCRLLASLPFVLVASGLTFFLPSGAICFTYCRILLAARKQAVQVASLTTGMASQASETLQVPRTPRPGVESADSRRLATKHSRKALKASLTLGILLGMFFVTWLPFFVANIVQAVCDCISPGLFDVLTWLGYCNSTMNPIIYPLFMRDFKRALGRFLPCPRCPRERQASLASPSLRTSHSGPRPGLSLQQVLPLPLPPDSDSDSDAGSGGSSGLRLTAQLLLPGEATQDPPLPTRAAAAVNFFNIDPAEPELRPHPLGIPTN
Procedure: The properties of compounds to inhibit cAMP production induced by a 5-HT6R agonist 5-CT (1000 nM) was evaluated. Compounds were tested in triplicate at eight concentrations (10^−11–10^−4 M). The level of cAMP was measured using frozen recombinant 1321N1 cells expressing the Human Serotonin 5-HT6R (PerkinElmer). Total cAMP was measured using the LANCE cAMP Detection Kit (PerkinElmer), according to the manufacturer’s instructions. For quantification of cAMP levels, 2000 cells/well ([…]) were incubated with a mixture of compounds ([…]) for 30 min at room temperature in a 384-well white opaque microtiter plate. After incubation, the reaction was stopped and cells were lysed by the addition of […] of working solution ([…] ULight-anti-cAMP) for 1 h at room temperature. Time-resolved fluorescence resonance energy transfer (TR-FRET) was detected by an Infinite M1000 Pro (Tecan) using instrument settings from the LANCE cAMP Detection Kit manual. […] The agonistic properties of compounds were determined with an analogous procedure, but without stimulation with 5-CT [10, 36].

in vitro = conditions: PAMPA, pH 7.4

Row | Structure (SMILES) | effect on HepG2 proliferation in words (HepG2 cell line) | effect on CYP3A4 activity (CYP3A4) | reversal of memory impairment induced by MK-801 in NOR test (Male CD1 mice [1]; 0.1 mg/kg) | reversal of memory impairment induced by MK-801 in NOR test (Male CD1 mice [1]; 0.5 mg/kg) | reversal of memory impairment induced by MK-801 in NOR test (Male CD1 mice [1]; 1 mg/kg) | reversal of MK-801-elevated activity (Male CD1 mice [2]) | PAMPA Pe ± SD (5 h, 200 µM, pH 7.4) | permeability in words (PAMPA) | 5-HT6R function in words (antagonism) (Human Serotonin 5-HT6R) | Kb (Human Serotonin 5-HT6R; antagonistic mode, 5-CT 1000 nM, read-out: 5-HT6 Kb) | Papp at 5 h, 200 µM (in vitro) | exacerbation of MK-801 hyperactivity (Male CD1 mice [2]; 3 mg/kg)
1 | Brc1cccc2c(CNCCc3c[nH]c4ccccc34)c[nH]c12 [Compound 18] | a proliferative effect was observed, but it was not statistically significant | only slightly inhibited | reversed memory impairment | reversed memory impairment | reversed memory impairment | did not reverse the locomotor activity elevated by the administration of MK-801 |  |  |  |  |  | 
2 | Brc1ccc2c(CNCCc3c[nH]c4ccccc34)c[nH]c2c1 [Compound 15] | a proliferative effect was observed, but it was not statistically significant | only slightly inhibited |  | reversed memory impairment | reversed memory impairment | did not reverse the locomotor activity elevated by the administration of MK-801 | 2.42 10^−6 cm/s | rather low Pe value but still higher than norfloxacin | antagonist | 131 nM | 2.42 ± 0.92 ×10⁻⁶ cm/s | not statistically significant
